Assay results from patent publication US20030232884A1, “New pharmaceutical formulation” (Critical Therapeutics, Inc., priority 2002, published 2003).

Test: Stability of ethyl pyruvate in three formulations as measured by pH change over time
Format: physicochemical
Method: Formulations comprising ethyl pyruvate at various concentrations ([…]) were prepared by dissolving ethyl pyruvate in either commercially available Ringer's Lactate solution (potassium chloride (0 to about 4 mM), sodium chloride (about 100 to about 156 mM), calcium chloride (about 2.5 mM to about 3.0 mM), and sodium lactate (about 25 mM to about 30 mM)) or Ringer-like solution (potassium chloride (0 to about 4 mM), sodium chloride (about 100 to about 156 mM) and calcium chloride (about 2.5 mM to about 3.0 mM)), or Intralipid™ (1 000 mL contain: purified soybean oil 100-300 g, purified egg phospholipids 12 g, glycerol anhydrous 22 g, water for injection q.s. ad 1 000 mL. pH was adjusted with sodium hydroxide to pH approximately 8. Osmolality was about 300 mOsm/kg water). Acidity of each solution was measured at 0, 5, 30 and 60 minutes, 2, 4, 24, and 48 hours after dissolution of ethyl pyruvate.

- pH (Intralipid, EP 1 %, 0 min after dissolution): 6.8
- pH (Intralipid, EP 1 %, 5 min after dissolution): 6.8
- pH (Intralipid, EP 1 %, 30 min after dissolution): 6.8
- pH (Intralipid, EP 1 %, 60 min after dissolution): 6.5
- pH (Intralipid, EP 1 %, 2 h after dissolution): 6.5
- pH (Intralipid, EP 1 %, 4 h after dissolution): 6.5
- pH (Intralipid, EP 1 %, 24 h after dissolution): 6.5
- pH (Intralipid, EP 1 %, 48 h after dissolution): 6.5
- pH (Intralipid, EP 5 %, 0 min after dissolution): 6.8
- pH (Intralipid, EP 5 %, 5 min after dissolution): 6.8
- pH (Intralipid, EP 5 %, 30 min after dissolution): 6.5
- pH (Intralipid, EP 5 %, 60 min after dissolution): 6.0
- pH (Intralipid, EP 5 %, 2 h after dissolution): 6.0
- pH (Intralipid, EP 5 %, 4 h after dissolution): 6.0
- pH (Intralipid, EP 5 %, 24 h after dissolution): 5.5
- pH (Intralipid, EP 5 %, 48 h after dissolution): 5.0
- pH (Intralipid, EP 10 %, 0 min after dissolution): 6.8
- pH (Intralipid, EP 10 %, 5 min after dissolution): 6.5
- pH (Intralipid, EP 10 %, 30 min after dissolution): 6.0
- pH (Intralipid, EP 10 %, 60 min after dissolution): 6.0
- pH (Intralipid, EP 10 %, 2 h after dissolution): 6.0
- pH (Intralipid, EP 10 %, 4 h after dissolution): 5.5
- pH (Intralipid, EP 10 %, 24 h after dissolution): 4.0
- pH (Intralipid, EP 10 %, 48 h after dissolution): 4.0
- drop in pH (Lactated Ringers Balanced Salt Solution, 1%, 5% and 10% by weight, over a 48 hour period): relatively reduced drop in pH
- pH (Ringer' lactate, EP 1 %, 0 min after dissolution): 6.0
- pH (Ringer' lactate, EP 1 %, 5 min after dissolution): 6.0
- pH (Ringer' lactate, EP 1 %, 30 min after dissolution): 5.5
- pH (Ringer' lactate, EP 1 %, 60 min after dissolution): 5.5
- pH (Ringer' lactate, EP 1 %, 2 h after dissolution): 5.2
- pH (Ringer' lactate, EP 1 %, 4 h after dissolution): 5.2
- pH (Ringer' lactate, EP 1 %, 24 h after dissolution): 5.2
- pH (Ringer' lactate, EP 1 %, 48 h after dissolution): 5.2
- pH (Ringer' lactate, EP 5 %, 0 min after dissolution): 6.0
- pH (Ringer' lactate, EP 5 %, 5 min after dissolution): 5.5
- pH (Ringer' lactate, EP 5 %, 30 min after dissolution): 5.3
- pH (Ringer' lactate, EP 5 %, 60 min after dissolution): 5.2
- pH (Ringer' lactate, EP 5 %, 2 h after dissolution): 5.2
- pH (Ringer' lactate, EP 5 %, 4 h after dissolution): 5.2
- pH (Ringer' lactate, EP 5 %, 24 h after dissolution): 5.2
- pH (Ringer' lactate, EP 5 %, 48 h after dissolution): 5.2
- pH (Ringer' lactate, EP 10 %, 0 min after dissolution): 6.0
- pH (Ringer' lactate, EP 10 %, 5 min after dissolution): 5.3
- pH (Ringer' lactate, EP 10 %, 30 min after dissolution): 5.3
- pH (Ringer' lactate, EP 10 %, 60 min after dissolution): 5.2
- pH (Ringer' lactate, EP 10 %, 2 h after dissolution): 5.2
- pH (Ringer' lactate, EP 10 %, 4 h after dissolution): 5.2
- pH (Ringer' lactate, EP 10 %, 24 h after dissolution): 5.2
- pH (Ringer' lactate, EP 10 %, 48 h after dissolution): 5.0
- pH (Ringer' solution (no lactate), EP 1 %, 0 min after dissolution): 6.5
- pH (Ringer' solution (no lactate), EP 1 %, 5 min after dissolution): 6.5
- pH (Ringer' solution (no lactate), EP 1 %, 30 min after dissolution): 6.5
- pH (Ringer' solution (no lactate), EP 1 %, 60 min after dissolution): 5.5
- pH (Ringer' solution (no lactate), EP 1 %, 2 h after dissolution): 5.5
- pH (Ringer' solution (no lactate), EP 1 %, 4 h after dissolution): 5.5
- pH (Ringer' solution (no lactate), EP 1 %, 24 h after dissolution): 5.5
- pH (Ringer' solution (no lactate), EP 1 %, 48 h after dissolution): 5.5
- pH (Ringer' solution (no lactate), EP 5 %, 0 min after dissolution): 6.5
- pH (Ringer' solution (no lactate), EP 5 %, 5 min after dissolution): 6.0
- pH (Ringer' solution (no lactate), EP 5 %, 30 min after dissolution): 6.0
- pH (Ringer' solution (no lactate), EP 5 %, 60 min after dissolution): 5.2
- pH (Ringer' solution (no lactate), EP 5 %, 2 h after dissolution): 5.2
- pH (Ringer' solution (no lactate), EP 5 %, 4 h after dissolution): 4.0
- pH (Ringer' solution (no lactate), EP 5 %, 24 h after dissolution): 2.0
- pH (Ringer' solution (no lactate), EP 5 %, 48 h after dissolution): 2.0
- pH (Ringer' solution (no lactate), EP 10 %, 0 min after dissolution): 6.5
- pH (Ringer' solution (no lactate), EP 10 %, 5 min after dissolution): 5.5
- pH (Ringer' solution (no lactate), EP 10 %, 30 min after dissolution): 5.3
- pH (Ringer' solution (no lactate), EP 10 %, 60 min after dissolution): 5.2
- pH (Ringer' solution (no lactate), EP 10 %, 2 h after dissolution): 5.2
- pH (Ringer' solution (no lactate), EP 10 %, 4 h after dissolution): 2.0
- pH (Ringer' solution (no lactate), EP 10 %, 24 h after dissolution): 2.0
- pH (Ringer' solution (no lactate), EP 10 %, 48 h after dissolution): 2.0
- stability as indicated by the pH readings (in Ringer's Lactate solution): remains stable
Structure (SMILES): CCOC(=O)C(C)=O [Ethyl Pyruvate, ethyl pyruvate]
